Assay results: patent publication US8486996B2, “Aroylfuranes and aroylthiophenes” (Basilea Pharmaceutica AG, priority 2006, dated 2013)
pEC50, pIC50: −log10 of the molar value. Read-outs that look alike come from different tables or passages of the source.

Columns and labels:
Assay type in all cases: cell-based
[1] = Hoechst 33342 nuclear staining (48 h read-out)
Procedure, shortened: (§1)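 Adherent cells pre-spread 24 h before dosing, suspension cells dosed at seeding; compounds at 0.001 μM-10 μM final, 48 h at culture conditions. Hoechst 33342 (2-5 μg/ml) added for 30 min, then fluorescence microscopy scoring of apoptotic nuclear fraction and apoptosis-specific morphology, reported as scores A-D.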

[2] = tested on: tumor cells; assay: Hoechst 33342 nuclear staining (48 h read-out)
Procedure, shortened: as §1

[3] = Mitochondrial membrane potential, JC-1 (read-out 48 h); details: PBL, JC-1, 48 h
Procedure, shortened: (§2)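 Tumor cells were treated with test compounds (adherent cells after 24 h of attachment, suspension cells immediately), medium holding up to 5% DMSO. After 48 h, JC-1 (2-5 μg/ml in added medium) was applied for 30 min. Fluorescence microscopy (FITC/TRITC filters) scored the fraction of cells with dissipated mitochondrial membrane potential as categories A-D.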

[4] = tested on: tumor cells; assay: as above; details: JC-1, 48 h
Procedure, shortened: as §2

[5] = MTS proliferation assay (72 h read-out); details: MRC5 cells
Procedure, shortened: (§3)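 Tumour cells (1.5×10^3–10^4 per well) were seeded 24 h before compound addition, then exposed to 0.001–10 μM final compound for 72 h under culture conditions. MTS reagent was added for a further 3 h, absorbance was read at 492 nm, and results were binned into scores A–D.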

[6] = tested on: tumor cells; assay: MTS proliferation assay (72 h read-out)
Procedure, shortened: as §3

[7] = Homo sapiens, MRC5 cells, read-out: Hoechst 33342 nuclear staining EC50, MRC5
[8] = PBL, read-out: Hoechst 33342 nuclear staining EC50, PBL
[9] = Homo sapiens, HeLa cells, read-out: Hoechst 33342 nuclear staining EC50, HeLa
[10] = Homo sapiens, Jurkat cells, read-out: Hoechst 33342 nuclear staining EC50, Jurkat
[11] = Jily cells, read-out: Hoechst 33342 nuclear staining EC50, Jily
[12] = Homo sapiens, HeLa cells, read-out: Mitochondrial membrane potential (read-out 48 h) HeLa
[13] = Homo sapiens, Jurkat cells, read-out: Mitochondrial membrane potential (read-out 48 h) Jurkat
[14] = Homo sapiens, MCF7 cells, read-out: Mitochondrial membrane potential (read-out 48 h) MCF7
[15] = Jily cells, read-out: Mitochondrial membrane potential (read-out 48 h) Jily
[16] = Homo sapiens, HT-1080, HT1080 cells, read-out: MTS proliferation assay IC50, HT1080
[17] = Homo sapiens, HeLa cells, read-out: MTS proliferation assay IC50, HeLa
[18] = Jily cells, read-out: MTS proliferation assay IC50, Jily
[19] = MRC5 cells, read-out: Hoechst 33342 nuclear staining EC50, MRC5
[20] = HeLa cells, read-out: Hoechst 33342 nuclear staining EC50, HeLa
[21] = Jurkat cells, read-out: Hoechst 33342 nuclear staining EC50, Jurkat
[22] = HeLa cells, read-out: Mitochondrial membrane potential (read-out 48 h) HeLa
[23] = Jurkat cells, read-out: Mitochondrial membrane potential (read-out 48 h) Jurkat
[24] = MCF7 cells, read-out: Mitochondrial membrane potential (read-out 48 h) MCF7
[25] = HT1080 cells, read-out: MTS proliferation assay IC50, HT1080
[26] = HeLa cells, read-out: MTS proliferation assay IC50, HeLa
[27] = Jurkat cells, read-out: MTS proliferation assay IC50, Jurkat

SMILES	pEC50 [1, 8]	pEC50 [2, 11]	pEC50 [3]	pEC50 [4, 15]	pIC50 [6, 18]	pEC50 [1, 19]	pEC50 [2, 20]	pEC50 [2, 21]	pEC50 [4, 22]	pEC50 [4, 23]	pEC50 [4, 24]	pIC50 [5]	pIC50 [6, 25]	pIC50 [6, 26]	pIC50 [6, 27]	also measured
CCOc1ccc(OCC)c(C(=O)c2oc3ccc(Cl)cc3c2N)c1 [Example 19]	< 6.00	6.00 to 7.00	< 6.00	6.00 to 7.00	6.00 to 7.00											pEC50 [1, 7]: 6.00 to 7.00; pEC50 [2, 9]: 6.00 to 7.00; pEC50 [2, 10]: 6.00 to 7.00; pEC50 [4, 12]: 6.00 to 7.00; pEC50 [4, 13]: 6.00 to 7.00; pEC50 [4, 14]: 6.00 to 7.00; pIC50 ([5]; Homo sapiens): 6.00 to 7.00; pIC50 [6, 16]: 6.00 to 7.00; pIC50 [6, 17]: 6.00 to 7.00
CCOc1ccc(F)cc1C(=O)c1cc2cc(COC)ccc2o1 [Example 57]	< 6.00	7.00 to 8.00	< 6.00	7.00 to 8.00	> 8.00	6.00 to 7.00	7.00 to 8.00	7.00 to 8.00	6.00 to 7.00	7.00 to 8.00	6.00 to 7.00	7.00 to 8.00	7.00 to 8.00	7.00 to 8.00	> 8.00	
CCN(CC)c1ncccc1C(=O)c1oc2ccc(Cl)cc2c1N [Example 81]	< 6.00	6.00 to 7.00	< 6.00	6.00 to 7.00	6.00 to 7.00	< 6.00	6.00 to 7.00	6.00 to 7.00	< 6.00	7.00 to 8.00	< 6.00	6.00 to 7.00	7.00 to 8.00	6.00 to 7.00	7.00 to 8.00	
COc1ccc(OC)c(C(=O)c2oc3ccc(Cl)cc3c2O)c1 [Ref C, reference compound]	< 6.00	< 6.00	< 6.00	< 6.00	< 6.00	< 6.00	< 6.00	< 6.00	< 6.00	< 6.00	< 6.00	< 6.00	< 6.00	< 6.00	< 6.00	
COc1ccc(OC)c(C(=O)COc2ccc(Cl)cc2C#N)c1 [Ref D, reference compound]	< 6.00	6.00 to 7.00	< 6.00		6.00 to 7.00	< 6.00	< 6.00	6.00 to 7.00	< 6.00	6.00 to 7.00	< 6.00	< 6.00	< 6.00	6.00 to 7.00	6.00 to 7.00	
CCOc1ccc(F)cc1C(=O)c1oc2ccccc2c1N [Example 56]	< 6.00	7.00 to 8.00	< 6.00	6.00 to 7.00	> 8.00	< 6.00	6.00 to 7.00	7.00 to 8.00	6.00 to 7.00	7.00 to 8.00	6.00 to 7.00	7.00 to 8.00	7.00 to 8.00	7.00 to 8.00	> 8.00	
CCOc1ccccc1C(=O)c1oc2ccc(F)cc2c1N [Example 45]	< 6.00	< 6.00	< 6.00	< 6.00	< 6.00	< 6.00	< 6.00	< 6.00	< 6.00	< 6.00	< 6.00	< 6.00	< 6.00	< 6.00	< 6.00	
CC1CCCN(c2ccc(F)cc2C(=O)c2oc3ccc(Cl)cc3c2N)C1 (stereo not drawn) [Example 104]	< 6.00	6.00 to 7.00	< 6.00	6.00 to 7.00	6.00 to 7.00	6.00 to 7.00	6.00 to 7.00	6.00 to 7.00	6.00 to 7.00	6.00 to 7.00	6.00 to 7.00	6.00 to 7.00	6.00 to 7.00	6.00 to 7.00	6.00 to 7.00	
CCOc1ccc(F)cc1C(=O)COc1ccc(Cl)cc1C#N [Example 143, ω-(4-Chloro-2-cyanophenoxy)-2-ethoxy-5-fluoroacetophenone]	< 6.00	> 8.00	< 6.00		7.00 to 8.00											pEC50 [1, 7]: > 8.00; pEC50 [2, 9]: 7.00 to 8.00; pEC50 [2, 10]: > 8.00; pEC50 [4, 12]: 7.00 to 8.00; pEC50 [4, 13]: > 8.00; pEC50 [4, 14]: 7.00 to 8.00; pIC50 ([5]; Homo sapiens): 7.00 to 8.00; pIC50 [6, 16]: 7.00 to 8.00; pIC50 [6, 17]: 7.00 to 8.00; pIC50 ([6]; Homo sapiens, Jurkat cells, read-out: MTS proliferation assay IC50, Jurkat): 7.00 to 8.00
